Nine compounds from patent publication US9062066B2, “Anti-inflammatory compound having inhibitory activity against multiple tyrosine kinases and pharmaceutical composition containing same” (KOREA INSTITUTE OF SCIENCE AND TECHNOLOGY, priority 2010, dated 2015) can be followed below.

What is called inhibition is the drop in the measured response relative to a control, in per cent.

What all share (assay type): biochemical
One experiment deals with Fgr tyrosine kinase (Homo sapiens (Human), UniProt P09769). In words: in vitro Fgr tyrosine kinase inhibition. Particulars: 1 uM compound; read-out: % inhibition against Fgr.
Fgr tyrosine kinase, sequence (P09769 whole entry): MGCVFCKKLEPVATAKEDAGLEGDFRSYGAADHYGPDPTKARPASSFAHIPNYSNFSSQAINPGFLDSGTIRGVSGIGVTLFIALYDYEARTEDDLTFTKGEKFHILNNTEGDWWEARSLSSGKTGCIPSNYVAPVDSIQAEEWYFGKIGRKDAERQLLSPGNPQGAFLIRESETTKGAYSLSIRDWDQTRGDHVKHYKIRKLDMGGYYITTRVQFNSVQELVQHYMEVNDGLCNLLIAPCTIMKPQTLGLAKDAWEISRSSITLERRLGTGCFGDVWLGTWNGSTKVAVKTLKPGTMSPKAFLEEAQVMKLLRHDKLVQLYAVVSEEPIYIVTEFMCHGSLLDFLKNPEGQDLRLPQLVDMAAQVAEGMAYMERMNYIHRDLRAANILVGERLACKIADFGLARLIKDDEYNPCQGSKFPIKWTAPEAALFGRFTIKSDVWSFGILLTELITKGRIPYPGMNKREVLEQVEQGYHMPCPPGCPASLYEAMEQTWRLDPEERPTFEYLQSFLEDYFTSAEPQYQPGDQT
Another experiment deals with Lyn tyrosine kinase (Homo sapiens (Human), UniProt P07948). Put plainly: in vitro Lyn tyrosine kinase inhibition. The following applies: 1 uM compound; read-out: % inhibition against Lyn.
Lyn tyrosine kinase, sequence (P07948 whole entry): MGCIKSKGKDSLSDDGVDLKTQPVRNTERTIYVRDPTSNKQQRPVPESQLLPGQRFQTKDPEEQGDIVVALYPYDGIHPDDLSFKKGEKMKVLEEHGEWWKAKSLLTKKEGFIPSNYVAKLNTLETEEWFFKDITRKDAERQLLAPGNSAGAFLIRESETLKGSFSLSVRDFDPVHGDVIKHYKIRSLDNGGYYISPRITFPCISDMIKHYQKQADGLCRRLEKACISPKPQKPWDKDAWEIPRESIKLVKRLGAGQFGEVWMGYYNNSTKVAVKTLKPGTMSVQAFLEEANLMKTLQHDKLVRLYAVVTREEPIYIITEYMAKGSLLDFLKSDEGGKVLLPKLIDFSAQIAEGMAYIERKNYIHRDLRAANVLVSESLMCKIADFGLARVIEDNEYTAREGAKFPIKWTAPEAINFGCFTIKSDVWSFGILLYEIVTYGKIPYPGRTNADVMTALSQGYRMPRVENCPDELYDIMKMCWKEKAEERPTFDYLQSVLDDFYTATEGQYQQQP
The target in a further experiment is Hck tyrosine kinase (Homo sapiens (Human), UniProt P08631). In words: in vitro Hck tyrosine kinase inhibition. The following applies: 1 uM compound; read-out: % inhibition against Hck.
Hck tyrosine kinase, sequence (P08631 whole entry): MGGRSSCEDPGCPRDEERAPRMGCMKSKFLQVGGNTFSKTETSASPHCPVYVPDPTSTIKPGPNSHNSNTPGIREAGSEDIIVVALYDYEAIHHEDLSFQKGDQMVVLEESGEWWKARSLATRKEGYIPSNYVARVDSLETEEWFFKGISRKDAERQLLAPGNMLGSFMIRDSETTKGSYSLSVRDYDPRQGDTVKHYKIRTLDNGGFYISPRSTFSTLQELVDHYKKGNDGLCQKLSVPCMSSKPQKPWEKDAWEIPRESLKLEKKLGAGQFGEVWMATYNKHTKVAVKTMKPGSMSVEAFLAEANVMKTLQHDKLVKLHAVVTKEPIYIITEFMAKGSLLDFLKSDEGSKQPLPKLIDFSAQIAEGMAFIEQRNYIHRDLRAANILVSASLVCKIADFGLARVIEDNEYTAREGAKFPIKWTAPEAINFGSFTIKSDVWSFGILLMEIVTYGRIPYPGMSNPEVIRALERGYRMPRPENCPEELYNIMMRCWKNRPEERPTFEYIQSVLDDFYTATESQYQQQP
A further experiment has as its target c-Src tyrosine kinase (Homo sapiens (Human), UniProt P12931). Put plainly: in vitro c-Src tyrosine kinase inhibition (32P-ATP, poly(D4Y)n substrate). The following applies: 1 uM compound; read-out: % inhibition against c-Src.
In the next experiment the target is DDR1 tyrosine kinase (Homo sapiens (Human), UniProt Q08345). In words: in vitro DDR1 tyrosine kinase inhibition (GST-fused kinase domain). Particulars: 1 uM compound; read-out: % inhibition against DDR1.
DDR1 tyrosine kinase, sequence (Q08345 610-905): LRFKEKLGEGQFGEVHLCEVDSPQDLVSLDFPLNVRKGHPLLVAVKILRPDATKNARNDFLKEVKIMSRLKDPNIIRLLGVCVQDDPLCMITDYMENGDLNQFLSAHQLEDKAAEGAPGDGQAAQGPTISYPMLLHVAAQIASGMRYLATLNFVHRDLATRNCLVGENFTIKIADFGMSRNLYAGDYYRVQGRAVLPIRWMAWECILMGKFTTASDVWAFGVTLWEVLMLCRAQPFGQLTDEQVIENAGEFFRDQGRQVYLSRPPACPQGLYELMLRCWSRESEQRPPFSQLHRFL
A further experiment addresses DDR2 tyrosine kinase (Homo sapiens (Human), UniProt Q16832). In words: in vitro DDR2 tyrosine kinase inhibition (GST-fused kinase domain). Particulars: 1 uM compound; read-out: % inhibition against DDR2.

c-Src tyrosine kinase, sequence (P12931 whole entry, looked up, the tested form may be a part): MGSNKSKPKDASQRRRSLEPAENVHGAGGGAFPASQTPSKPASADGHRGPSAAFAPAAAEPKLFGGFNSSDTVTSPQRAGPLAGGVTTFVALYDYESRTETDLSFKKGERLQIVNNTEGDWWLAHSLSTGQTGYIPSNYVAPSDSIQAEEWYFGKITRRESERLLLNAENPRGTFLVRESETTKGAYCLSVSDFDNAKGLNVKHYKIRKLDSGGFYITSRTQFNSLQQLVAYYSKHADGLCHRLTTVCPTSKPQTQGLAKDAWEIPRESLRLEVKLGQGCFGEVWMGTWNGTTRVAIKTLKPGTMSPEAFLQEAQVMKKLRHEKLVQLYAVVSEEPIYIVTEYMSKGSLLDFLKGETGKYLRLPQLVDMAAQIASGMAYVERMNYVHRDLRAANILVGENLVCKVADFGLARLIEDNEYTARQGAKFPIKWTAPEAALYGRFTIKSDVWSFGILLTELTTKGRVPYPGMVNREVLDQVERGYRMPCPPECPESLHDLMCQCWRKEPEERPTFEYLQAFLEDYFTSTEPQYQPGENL
DDR2 tyrosine kinase, sequence (Q16832 563-849): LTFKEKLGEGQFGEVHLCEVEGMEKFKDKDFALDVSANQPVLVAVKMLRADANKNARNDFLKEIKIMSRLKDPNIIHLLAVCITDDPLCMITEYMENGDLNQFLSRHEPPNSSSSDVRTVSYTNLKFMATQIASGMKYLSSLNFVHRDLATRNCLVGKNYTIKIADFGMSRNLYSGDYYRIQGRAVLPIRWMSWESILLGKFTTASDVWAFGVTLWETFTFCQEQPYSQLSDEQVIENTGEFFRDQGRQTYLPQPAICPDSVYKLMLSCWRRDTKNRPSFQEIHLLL

As to `N#Cc1ccc(-c2cc3ncnc(Nc4cccc(O)c4)c3s2)cc1` [LCB 03-0013, 4-(4-(3-hydroxyphenylamino)thieno[3,2-d]pyrimidin-6-yl)benzonitrile], the inhibition at 1 µM at Fgr tyrosine kinase was over 60%; at Lyn tyrosine kinase it was over 70%; on Hck tyrosine kinase, over 70%; at c-Src tyrosine kinase it was over 70%; on DDR1 tyrosine kinase it was over 60%; on DDR2 tyrosine kinase, over 60%.

As to `COc1cccc(Nc2ncnc3cc(-c4ccc(O)cc4)sc23)c1` [LCB 03-0016, 4-(4-(3-methoxyphenylamino)thieno[3,2-d]pyrimidin-6-yl)phenol], the inhibition at 1 µM at Fgr tyrosine kinase is over 70%; at Lyn tyrosine kinase it was over 70%; at Hck tyrosine kinase, over 70%; at c-Src tyrosine kinase it was over 70%; at DDR1 tyrosine kinase, over 20%; at DDR2 tyrosine kinase, over 20%.

Consider `Oc1cccc(Nc2ncnc3cc(-c4ccc(Cl)cc4)sc23)c1` [LCB 03-0019, 3-(6-(4-chlorophenyl)thieno[3,2-d]pyrimidin-4-ylamino)phenol], for which the inhibition at 1 µM is over 60% at Fgr tyrosine kinase; over 60% at Lyn tyrosine kinase; over 60% on Hck tyrosine kinase; over 60% on c-Src tyrosine kinase; over 70% on DDR1 tyrosine kinase; over 70% at DDR2 tyrosine kinase.

Consider `Oc1cccc(Nc2ncnc3cc(-c4ccc(OCCN5CCOCC5)cc4)sc23)c1` [LCB 03-0020, 3-(6-(4-(2-morpholinoethoxy)phenyl)thieno[3,2-d]pyrimidin-4-ylamino)phenol], for which the inhibition at 1 µM at Fgr tyrosine kinase is over 70%; at Lyn tyrosine kinase it was over 70%; on Hck tyrosine kinase, over 70%; on c-Src tyrosine kinase it was over 70%; at DDR1 tyrosine kinase, over 60%; at DDR2 tyrosine kinase it was over 60%.

In the case of `COc1cccc(Nc2ncnc3cc(-c4ccc(OCCc5ccccc5)cc4)sc23)c1` [LCB 03-0021, N-(3-methoxyphenyl)-6-(4-phenethoxyphenyl)thieno[3,2-d]pyrimidin-4-amine], the inhibition at 1 µM is over 60% on Fgr tyrosine kinase; over 60% at Lyn tyrosine kinase; over 60% on Hck tyrosine kinase; over 50% at c-Src tyrosine kinase; over 30% on DDR1 tyrosine kinase; over 30% on DDR2 tyrosine kinase.

For the compound `COc1cccc(Nc2ncnc3cc(-c4ccc(OCCc5ccccn5)cc4)sc23)c1` [LCB 03-0022, N-(3-methoxyphenyl)-6-(4-(2-(pyridin-2-yl)ethoxy)phenyl)thieno[3,2-d]pyrimidin-4-amine], the inhibition at 1 µM at Fgr tyrosine kinase is over 60%; on Lyn tyrosine kinase it was over 60%; on Hck tyrosine kinase, over 60%; at c-Src tyrosine kinase it was over 60%; at DDR1 tyrosine kinase, over 10%; at DDR2 tyrosine kinase it was over 10%.

Turning to `O=C(O)c1cccc(-c2cc3ncnc(Nc4cccc(O)c4)c3s2)c1` [LCB 03-0051, 3-(4-(3-hydroxyphenylamino)thieno[3,2-d]pyrimidin-6-yl)benzoic acid], the inhibition at 1 µM at DDR1 tyrosine kinase and on DDR2 tyrosine kinase was over 80% in each case.

With `NC(=O)C1CCCN1Cc1ccc(-c2cc3ncnc(Nc4cccc(O)c4)c3s2)cc1` (stereo not drawn) [LCB 03-0068, 1-(4-(4-(3-hydroxyphenylamino)thieno[3,2-d]pyrimidin-6-yl)benzyl)pyrrolidine-2-carboxamide], the inhibition at 1 µM at DDR1 tyrosine kinase and on DDR2 tyrosine kinase was over 80% in each case.

For the compound `O=C(O)C1CCCN1Cc1ccc(-c2cc3ncnc(Nc4cccc(O)c4)c3s2)cc1` (stereo not drawn) [LCB 03-0069, 1-(4-(4-(3-hydroxyphenylamino)thieno[3,2-d]pyrimidin-6-yl)benzyl)pyrrolidine-2-carboxylic acid], the inhibition at 1 µM on DDR1 tyrosine kinase and on DDR2 tyrosine kinase was over 50% each time.
